Experimental data taken from PMC12483202, “Pharmacokinetic profile of oral firocoxib in the koala (Phascolarctos cinereus)” (PLOS One, 2025).

Experiment: Single oral dose (5 mg/kg) pharmacokinetics of firocoxib in koalas, plasma HPLC, non-compartmental analysis;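 note: healthy adult koalas, three per sex, anaesthetised the day before dosing for cephalic vein catheterisation, with serial blood draws and firocoxib in plasma quantified by HPLC using fluorescence detection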
Details: for Cmax / MRT inf / Tmax / Vd/F / k el / half-life / concentration at 2 h / concentration at 4 h / concentration at 8 h / concentration at 1 h / concentration at 0.25 h / concentration at 0.5 h / concentration at 12 h / concentration at 24 h / AUC(0-inf) / AUC(0-t): plasma, po, 5 mg/kg; for MRT inf: MRT0-inf; for Vd/F: Vz/F; for concentration at 2 h / concentration at 4 h / concentration at 8 h / concentration at 1 h / concentration at 0.25 h / concentration at 0.5 h / concentration at 12 h / concentration at 24 h: Firocoxib plasma concentration; for AUC(0-t): AUC0-t
[1] = female, K4 female, single oral 5 mg/kg
[2] = female, K5 female, single oral 5 mg/kg
[3] = female, arithmetic mean, female koalas (n = 3), single oral 5 mg/kg
[4] = female, harmonic mean, female koalas (n = 3), single oral 5 mg/kg
[5] = female, K6 female, single oral 5 mg/kg
[6] = harmonic mean, female koalas (n = 3), single oral 5 mg/kg
[7] = harmonic mean, male koalas (n = 3), single oral 5 mg/kg
[8] = harmonic mean, n = 6 koalas, single oral 5 mg/kg
[9] = male, koala (Phascolarctos cinereus), K1 male, single oral 5 mg/kg
[10] = male, koala (Phascolarctos cinereus), K2 male, single oral 5 mg/kg
[11] = male, koala (Phascolarctos cinereus), K3 male, single oral 5 mg/kg
[12] = male, koala, K1 male, single oral 5 mg/kg
[13] = male, koala, K2 male, single oral 5 mg/kg
[14] = male, koala, K3 male, single oral 5 mg/kg
[15] = male, K1 male, single oral 5 mg/kg
[16] = male, K2 male, single oral 5 mg/kg
[17] = male, K3 male, single oral 5 mg/kg
[18] = male, arithmetic mean, male koalas (n = 3), single oral 5 mg/kg
[19] = male, harmonic mean, male koalas (n = 3), single oral 5 mg/kg
[20] = median (range), n = 6 koalas, single oral 5 mg/kg

Source text: Six mature koalas (3 males, 3 females) with median (range) body weights and ages of 9.2 kg, (7.5 to 9.7 kg) and 4.8 years (4.3 to 9.1 years), respectively, were recruited from the Taronga Zoo colony (Mosman, NSW, Australia). These koalas were clinically normal based on regular physical examinations, haematological and biochemical analyte values. During the study, koalas were housed singly and supplied with various Eucalyptus spp. foliage and water ad-libitum. […] No animals were sacrificed; the animals were returned to the colony immediately after firocoxib administration and blood sampling. In order to minimise stress, intravenous catheterisation for sequential blood sampling was performed under general anaesthesia.
The day prior to drug administration and blood collection, the koalas were anaesthetised with alfaxalone (Alfaxan, Jurox, Pty Ltd, Rutherford, NSW, Australia) at 3 mg/kg administered intramuscularly (i.m.) and maintained under anaesthesia on isoflurane in 100% oxygen via a face mask for placement of a 20 gauge, 1 ¼ inch intravenous catheter into the cephalic vein. A short T-connector extension set (Codan, Santa Ana, CA, USA) and cap was attached to the catheter and flushed with saline. The extension tube, cap and catheter were secured with tape and bandage, for serial blood collection. Blood (5 mL) was collected at the time of anaesthesia in a lithium heparin tube to establish a baseline (t = 0 h).
Firocoxib was administered as a single oral dose of 5 mg/kg as crushed tablets made into a paste with Vetafarm Koala Crittacare (Wagga Wagga, NSW) and water.
Samples were centrifuged at 1500 x g for 10 minutes, within 1 h of collection; the plasma was immediately stored at –80 °C and protected from light until drug quantification. […] Clinical observations for the presence of adverse effects in the animals treated included measurement of vital signs, appetite, body weight, faecal consistency and overall behaviour and mobility.
Quantification of firocoxib and visualisation of metabolites in plasma was achieved by HPLC with fluorescence detection modified from a published method [12]. The HPLC system consisted of a Shimadzu LC-20AT solvent delivery unit, DGU-20A degasser, a SIL-20A HT auto injector, an SPD-20A UV detector and RF-10A XL fluorescence detector (Shimadzu, Rydalmere, NSW, Australia) and column oven (CTO-20A). […] Chromatographic separation was performed with a Supelco, Discovery C18, (25 cm x 4.6 mm, 5 µm) column (Merck KGaA, Darmstadt, Germany) with a 1-mm Opti-guard C18 pre-column (Choice Analytical, Thornleigh, NSW, Australia) at ambient temperature. […] Fluorescence detection excitation and emission wavelengths were 280 nm and 375 nm, respectively.
For sample preparation 200 μL of each of the following: plasma samples collected from koalas administered firocoxib, standards prepared for the standard curves and the QC samples; were extracted twice by mixing with 800 μL of ethyl acetate. The extracted organic portion (1.6 mL) was dried under vacuum in a Speed Vac Concentrator (Thermo Scientific, MA, USA) at 35 °C for 1 h, reconstituted with 100 μL of acetonitrile, and finally 10 μL of the reconstituted sample was injected into the HPLC system.
The concentration of each QC sample was repeated three times with the accuracy and precision calculated on each of the triplicates. The mean accuracy ± standard deviation (SD) were calculated using the formula [13]:
Firocoxib plasma concentrations from the initial oral administration underwent non-compartmental analysis. The peak concentration (Cmax) and the time reached (Tmax) were obtained directly from the measured concentrations. The elimination half-life (t1/2) was determined by ln2/ke where ke is the elimination rate constant which is the inverse slope of the elimination or terminal part of the semi-log curve.

## CC1(C)OC(=O)C(OCC2CC2)=C1c1ccc(S(C)(=O)=O)cc1 [firocoxib]
female, median value, female koalas, PO 5 mg/kg
  Cmax: 61.9 ng/mL
[1]
  MRT inf: 8.74 h
  Tmax: 4 h
  Vd/F: 202 L
[2]
  MRT inf: 13.1 h
  Tmax: 2 h
  Vd/F: 616 L
[3]
  MRT inf: 16.1 h
  Tmax: 3.33 h
  Vd/F: 982 L
[4]
  MRT inf: 13.1 h
  Tmax: 3 h
  Vd/F: 437 L
[5]
  Tmax: 4 h
  Vd/F: 2130 L
female, ke (elimination constant), K4 female, single oral 5 mg/kg, slope from 8, 12, 24 h
  k el: 5.28e-05 s⁻¹
female, ke (elimination constant), K5 female, single oral 5 mg/kg, slope from 8, 12, 24 h
  k el: 1.94e-05 s⁻¹
female, ke (elimination constant), K6 female, single oral 5 mg/kg, slope from 8,12,24 h
  k el: 2.78e-05 s⁻¹
female, ke, arithmetic mean, female koalas (n = 3), single oral 5 mg/kg
  k el: 3.33e-05 s⁻¹
female, ke, harmonic mean, female koalas (n = 3), single oral 5 mg/kg
  k el: 2.78e-05 s⁻¹
female, t1/2 (elimination half-life), K4 female, single oral 5 mg/kg
  half-life: 3.67 h
female, t1/2 (elimination half-life), K5 female, single oral 5 mg/kg
  half-life: 9.91 h
female, t1/2 (elimination half-life), K6 female, single oral 5 mg/kg
  half-life: 7.24 h
female, t1/2, arithmetic mean, female koalas (n = 3), single oral 5 mg/kg
  half-life: 6.94 h
female, t1/2, harmonic mean, female koalas (n = 3), single oral 5 mg/kg
  half-life: 5.87 h
female, t1/2, median value, female koalas, PO 5 mg/kg
  half-life: 7.24 h
[6]
  AUC 0-t/AUC0-inf: 0.91
  AUMC 0-inf: 10875.3 ng/mL*h^2
  Cl/F: 52.0 L/h
  ka: 0.25 h⁻¹
[7]
  AUC 0-t/AUC0-inf: 0.88
  AUMC 0-inf: 16711.5 ng/mL*h^2
  Cl/F: 23.8 L/h
  ka: 0.16 h⁻¹
[8]
  AUMC: 13176.1 ng/mL*h ^ 2
  Cl/F: 32.6 L/h
  ka: 0.20 h⁻¹
[9]
  concentration at 2 h: 22.7 ng/mL
  concentration at 4 h: 68.3 ng/mL
  concentration at 8 h: 191 ng/mL
[10]
  concentration at 2 h: 39.2 ng/mL
  concentration at 4 h: 210 ng/mL
  concentration at 8 h: 118 ng/mL
[11]
  concentration at 1 h: 41.9 ng/mL
  concentration at 2 h: 105 ng/mL
  concentration at 4 h: 263 ng/mL
  concentration at 8 h: 128 ng/mL
[12]
  concentration at 0.25 h: 7.94 ng/mL
  concentration at 0.5 h: 4.51 ng/mL
  concentration at 1 h: 8.34 ng/mL
  concentration at 12 h: 101 ng/mL
  concentration at 24 h: 57.2 ng/mL
[13]
  concentration at 0.25 h: 4.37 ng/mL
  concentration at 0.5 h: 10 ng/mL
  concentration at 1 h: 21.7 ng/mL
  concentration at 12 h: 39.7 ng/mL
  concentration at 24 h: 4.13 ng/mL
[14]
  concentration at 0.25 h: 16.6 ng/mL
  concentration at 0.5 h: 52.5 ng/mL
  concentration at 12 h: 49.6 ng/mL
  concentration at 24 h: 3.86 ng/mL
male, AUC0-inf, K1 male, single oral 5 mg/kg
  AUC(0-inf): 3000 ng·h/mL
male, AUC0-inf, K2 male, single oral 5 mg/kg
  AUC(0-inf): 1540 ng·h/mL
male, AUC0-inf, K3 male, single oral 5 mg/kg
  AUC(0-inf): 1950 ng·h/mL
male, AUC 0-inf, arithmetic mean, male koalas (n = 3), single oral 5 mg/kg
  AUC(0-inf): 2160 ng·h/mL
male, AUC 0-inf, harmonic mean, male koalas (n = 3), single oral 5 mg/kg
  AUC(0-inf): 2010 ng·h/mL
[15]
  AUC(0-t): 2160 ng·h/mL
  Cmax: 191 ng/mL
  MRT inf: 19 h
  Tmax: 8 h
  Vd/F: 277 L
[16]
  AUC(0-t): 1520 ng·h/mL
  Cmax: 210 ng/mL
  MRT inf: 7.13 h
  Tmax: 4 h
  Vd/F: 152 L
[17]
  AUC(0-t): 1930 ng·h/mL
  Cmax: 263 ng/mL
  MRT inf: 6.88 h
  Tmax: 4 h
  Vd/F: 113 L
[18]
  AUC(0-t): 1870 ng·h/mL
  Cmax: 221 ng/mL
  MRT inf: 11.1 h
  Tmax: 5.33 h
  Vd/F: 181 L
[19]
  AUC(0-t): 1830 ng·h/mL
  Cmax: 217 ng/mL
  MRT inf: 9.01 h
  Tmax: 4.8 h
  Vd/F: 158 L
male, median value, male koalas, PO 5 mg/kg
  Cmax: 210 ng/mL
male, ke (elimination constant), K1 male, single oral 5 mg/kg, slope from 12, 24 h
  k el: 1.39e-05 s⁻¹
male, ke (elimination constant), K2 male, single oral 5 mg/kg, slope from 4, 8, 12 h
  k el: 5.83e-05 s⁻¹
male, ke (elimination constant), K3 male, single oral 5 mg/kg, slope from 4, 8, 12 h
  k el: 6.11e-05 s⁻¹
male, ke, arithmetic mean, male koalas (n = 3), single oral 5 mg/kg
  k el: 4.44e-05 s⁻¹
male, ke, harmonic mean, male koalas (n = 3), single oral 5 mg/kg
  k el: 2.78e-05 s⁻¹
male, t1/2 (elimination half-life), K1 male, single oral 5 mg/kg
  half-life: 14.7 h
male, t1/2 (elimination half-life), K2 male, single oral 5 mg/kg
  half-life: 3.31 h
male, t1/2 (elimination half-life), K3 male, single oral 5 mg/kg
  half-life: 3.19 h
male, t1/2, arithmetic mean, male koalas (n = 3), single oral 5 mg/kg
  half-life: 7.06 h
male, t1/2, harmonic mean, male koalas (n = 3), single oral 5 mg/kg
  half-life: 4.38 h
male, t1/2, median value, male koalas, PO 5 mg/kg
  half-life: 3.31 h
[20]
  AUMC: 12429.4 (8500.1–56998.2) ng/mL*h ^ 2
  Cl/F: 34.5 (19.0-87.5) L/h
  ka: 0.23 (0.11-0.43) 1/h
Single oral 5 mg/kg
  time after which firocoxib could be detected in the plasma of all koalas: 15 min
